Data from patent US10953237B2, “Methods of providing skin care using phototherapy” (InDerm, priority 2015, dated 2021).

System: human epidermal keratinocytes
Test: Wound repair (scratch wound closure) in keratinocyte culture
Type: cell-based
Protocol: The cells were cultured in a 24-well box (20 to 30 000 cells per well). At confluence, a “wound” was made at the center of the well using an “Essen Woundmaker” (Essen Bioscience, Ann Arbor, USA). After rinsing the wells with PBS to remove detached cells, the optional test agent was applied and illumination was started.
Cell migration was followed by two types of instrumentation, (i) videomicroscopy or (ii) Incucyte (Essen Bioscience): whereby a photo from the culture well is recorded every 30 minutes or every hour over a period of 48 hours.
Healing of wounds was studied by dynamic microscopy using a Nikon Eclipse Ti microscope allowing the taking of pictures at intervals of 30 minutes for 24 hours on primary cultures of human fibroblasts and keratinocytes. In this way, it was possible to assess the level of healing.
Incucyte is a device for visualizing and quantifying cell migration in a CO2 incubator at 37° C. The device is used with the Essen Woundmaker. The equipment was calibrated to produce wounds in cell cultures with high reproducibility. The device featured integrated processing software acquisition and image analysis allowing for quantification of the migration rate of cells.
The setup of this experiment was as described in the Materials and Methods Section herein above. […]

Structure (SMILES): CCCCCCCCCCCCCCCC(=O)O[C@@H]1C[C@@H](C(=O)O)N(C(=O)CCCCCCCCCCCCCCC)C1 [DPHP, Dipalmitoylhydroxyproline]
- effect on skin wound repair (DPHP serum in combination with 3-LED lighting, keratinocytes (FIG. 4)): positive effect
- time to 45% wound closure (serum (0.175 wt. % DPHP) added at 0.05 wt % of medium, with 3 LEDs 520, 660, 780 nm for 15 seconds, instead of 10 hrs): 6 h
